Values of other authors, collected in US20120093797A1, “COMBINED USE OF CREATINE PHOSPHATE AND CREATINE PHOSPHOKINASE FOR TREATMENT OF ARTERIOSCLEROSIS” (ARTCELL INVEST LTD., priority 2009, published 2012).

Compound: CN(CC(=O)O)C(=N)NP(=O)(O)O [CP, 2-[(amino-phosphonoimino-methyl)-methyl-amino]acetic acid]
- Half-life of CP: 4 to 7 min
